Measured values reported in US11306101B2 (Celgene Corporation, priority 2019, dated 2022).

Biological target: T1, CK1α (Homo sapiens, UniProt P48729+Q96SW2)
T1 construct: expressed in transfected cells
Experiment: CK1α ePL degradation assay in MDS-L cells
Type: cell-based
Conditions: MDS-L cells expressing ePL-tagged CK1α; for DC50: concentration giving 50% CK1α degradation vs DMSO control; for Y: lowest measured CK1α level normalized to DMSO control
Summary of the method: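 MDS-L cells treated with compound in a 10-point, 3-fold series from 10 μM to 0.0005 μM at 37° C, 5% CO2 for the indicated times; CK1α measured by InCELL Hunter enzyme-fragment luminescence. Levels normalized to DMSO as percent of control; lowest level reached taken as Y value.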

T1 sequence (P48729 whole entry): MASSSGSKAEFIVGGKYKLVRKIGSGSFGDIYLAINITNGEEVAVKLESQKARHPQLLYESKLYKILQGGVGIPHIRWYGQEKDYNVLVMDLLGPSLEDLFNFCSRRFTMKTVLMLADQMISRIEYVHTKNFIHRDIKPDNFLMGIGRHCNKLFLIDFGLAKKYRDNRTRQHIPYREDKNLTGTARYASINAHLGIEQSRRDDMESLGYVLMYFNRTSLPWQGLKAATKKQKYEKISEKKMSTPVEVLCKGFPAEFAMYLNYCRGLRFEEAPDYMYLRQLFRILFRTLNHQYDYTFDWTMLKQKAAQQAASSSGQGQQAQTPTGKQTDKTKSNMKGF
T1 sequence (Q96SW2 whole entry): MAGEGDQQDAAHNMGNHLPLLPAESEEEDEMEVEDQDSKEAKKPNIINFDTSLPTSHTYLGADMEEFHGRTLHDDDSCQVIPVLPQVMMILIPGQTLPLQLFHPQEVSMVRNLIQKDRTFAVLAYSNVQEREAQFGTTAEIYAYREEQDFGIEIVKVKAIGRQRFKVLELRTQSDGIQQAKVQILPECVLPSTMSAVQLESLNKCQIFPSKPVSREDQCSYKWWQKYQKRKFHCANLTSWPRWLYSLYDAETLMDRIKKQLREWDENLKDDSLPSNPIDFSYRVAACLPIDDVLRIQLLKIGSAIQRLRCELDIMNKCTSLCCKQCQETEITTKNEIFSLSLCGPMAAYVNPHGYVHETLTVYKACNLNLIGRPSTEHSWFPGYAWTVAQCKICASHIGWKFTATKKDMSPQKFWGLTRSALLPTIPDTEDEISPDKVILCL
T1 sequence (Q16531 whole entry partner): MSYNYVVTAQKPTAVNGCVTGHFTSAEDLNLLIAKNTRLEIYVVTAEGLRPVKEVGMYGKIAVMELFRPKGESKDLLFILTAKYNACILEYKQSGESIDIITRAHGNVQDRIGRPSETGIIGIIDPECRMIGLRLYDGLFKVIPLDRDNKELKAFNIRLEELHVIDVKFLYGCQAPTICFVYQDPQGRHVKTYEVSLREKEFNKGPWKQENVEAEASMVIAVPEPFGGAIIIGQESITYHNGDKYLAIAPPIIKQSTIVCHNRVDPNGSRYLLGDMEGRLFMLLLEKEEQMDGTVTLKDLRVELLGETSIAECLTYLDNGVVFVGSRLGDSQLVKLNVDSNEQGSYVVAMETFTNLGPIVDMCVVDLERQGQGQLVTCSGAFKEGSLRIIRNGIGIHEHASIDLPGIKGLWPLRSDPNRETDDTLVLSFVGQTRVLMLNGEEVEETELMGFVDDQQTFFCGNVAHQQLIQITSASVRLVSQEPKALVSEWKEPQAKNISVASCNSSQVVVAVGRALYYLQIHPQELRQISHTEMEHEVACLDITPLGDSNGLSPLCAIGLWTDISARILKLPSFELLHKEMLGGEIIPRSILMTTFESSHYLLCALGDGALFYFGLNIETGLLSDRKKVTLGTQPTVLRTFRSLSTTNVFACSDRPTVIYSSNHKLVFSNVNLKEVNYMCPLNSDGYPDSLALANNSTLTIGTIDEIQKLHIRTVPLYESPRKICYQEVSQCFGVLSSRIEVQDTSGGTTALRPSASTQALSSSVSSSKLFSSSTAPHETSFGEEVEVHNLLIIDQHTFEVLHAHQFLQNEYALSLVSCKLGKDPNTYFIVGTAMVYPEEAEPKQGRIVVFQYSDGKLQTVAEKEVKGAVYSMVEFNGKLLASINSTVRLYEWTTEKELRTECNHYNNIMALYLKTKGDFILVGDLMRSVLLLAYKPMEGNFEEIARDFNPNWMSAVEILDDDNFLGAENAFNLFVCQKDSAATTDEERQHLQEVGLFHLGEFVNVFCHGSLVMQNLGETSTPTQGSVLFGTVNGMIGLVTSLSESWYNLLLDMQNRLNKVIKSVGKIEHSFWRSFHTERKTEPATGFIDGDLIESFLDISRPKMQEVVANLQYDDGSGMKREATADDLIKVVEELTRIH

Row | SMILES | DC50 [µM] | Y
1 | CN(C)Cc1cccc([C@@H](NC(=O)c2ccc3c(c2)CN(C2CCC(=O)NC2=O)C3=O)C(F)(F)F)c1 (stereo partly drawn) [Example 150, N-((R)-1-(3-((dimethylamino)methyl)phenyl)-2,2,2-trifluoroethyl)-2-(2,6-dioxopiperidin-3-yl)-1-oxoisoindoline-5-carboxamide] | 0.1 to 0.5 | ** (a Y value (shown as**) of 20%<Y≤35%)
2 | O=C1CCC(N2Cc3cc(C(=O)N[C@H](c4c(F)cccc4Cl)C(F)(F)F)ccc3C2=O)C(=O)N1 (stereo partly drawn) [Example 151, N-((R)-1-(2-chloro-6-fluorophenyl)-2,2,2-trifluoroethyl)-2-(2,6-dioxopiperidin-3-yl)-1-oxoisoindoline-5-carboxamide] | < 0.1 | * (a Y value (shown as *) of 0<Y≤20%)
3 | O=C1CCC(N2Cc3cc(C(=O)N[C@H](c4cccc(F)c4Cl)C(F)(F)F)ccc3C2=O)C(=O)N1 (stereo partly drawn) [Example 152, N-((R)-1-(2-chloro-3-fluorophenyl)-2,2,2-trifluoroethyl)-2-(2,6-dioxopiperidin-3-yl)-1-oxoisoindoline-5-carboxamide] | < 0.1 | * (a Y value (shown as *) of 0<Y≤20%)
4 | O=C1CCC(N2Cc3c(ccc(C(=O)N[C@H](c4ccc(F)cc4)C(F)(F)F)c3Cl)C2=O)C(=O)N1 (stereo partly drawn) [Example 153, 4-chloro-2-(2,6-dioxopiperidin-3-yl)-1-oxo-N-((R)-2,2,2-trifluoro-1-(4-fluorophenyl)ethyl)isoindoline-5-carboxamide] | 0.1 to 0.5 | ** (a Y value (shown as**) of 20%<Y≤35%)
5 | CC(C)[C@H](NC(=O)c1ccc2c(c1)CN(C1CCC(=O)NC1=O)C2=O)c1ccccc1 (stereo partly drawn) [Example 154, 2-(2,6-dioxopiperidin-3-yl)-N-((S)-2-methyl-1-phenylpropyl)-1-oxoisoindoline-5-carboxamide] | < 0.1 | * (a Y value (shown as *) of 0<Y≤20%)
6 | O=C1CCC(N2Cc3cc(C(=O)N[C@H](c4ccccc4CN4CCOCC4)C(F)(F)F)ccc3C2=O)C(=O)N1 (stereo partly drawn) [Example 155, 2-(2,6-dioxopiperidin-3-yl)-1-oxo-N-((R)-2,2,2-trifluoro-1-(2-(morpholinomethyl)phenyl)ethyl)isoindoline-5-carboxamide] | < 0.1 | * (a Y value (shown as *) of 0<Y≤20%)
7 | C[C@]1(O)CC[C@H]([C@@H](NC(=O)c2ccc3c(c2)CN(C2CCC(=O)NC2=O)C3=O)C(F)(F)F)CC1 (stereo partly drawn) [Example 156, 2-(2,6-dioxopiperidin-3-yl)-1-oxo-N-((R)-2,2,2-trifluoro-1-((1r,4R)-4-hydroxy-4-methylcyclohexyl)ethyl)isoindoline-5-carboxamide] | 0.1 to 0.5 | * (a Y value (shown as *) of 0<Y≤20%)
8 | O=C1CCC(N2Cc3c(ccc(C(=O)N[C@H](c4ccccc4OC4CC4)C(F)(F)F)c3F)C2=O)C(=O)N1 (stereo partly drawn) [Example 157, N-((R)-1-(2-cyclopropoxyphenyl)-2,2,2-trifluoroethyl)-2-(2,6-dioxopiperidin-3-yl)-4-fluoro-1-oxoisoindoline-5-carboxamide] | < 0.1 | ** (a Y value (shown as**) of 20%<Y≤35%)
9 | O=C1CCC(N2Cc3cc(C(=O)N[C@H](c4cccc(Oc5ccccc5)c4)C(F)(F)F)ccc3C2=O)C(=O)N1 (stereo partly drawn) [Example 158, 2-(2,6-dioxopiperidin-3-yl)-1-oxo-N-((R)-2,2,2-trifluoro-1-(3-phenoxyphenyl)ethyl)isoindoline-5-carboxamide] | < 0.1 | * (a Y value (shown as *) of 0<Y≤20%)
10 | O=C1CCC(N2Cc3cc(C(=O)N[C@H](c4ccccc4Oc4ccccc4)C(F)(F)F)ccc3C2=O)C(=O)N1 (stereo partly drawn) [Example 159, 2-(2,6-dioxopiperidin-3-yl)-1-oxo-N-((R)-2,2,2-trifluoro-1-(2-phenoxyphenyl)ethyl)isoindoline-5-carboxamide] | < 0.1 | * (a Y value (shown as *) of 0<Y≤20%)
11 | O=C1CCC(N2Cc3cc(C(=O)N[C@H](c4cc(F)ccc4Cl)C(F)(F)F)ccc3C2=O)C(=O)N1 (stereo partly drawn) [Example 160, N-((R)-1-(2-chloro-5-fluorophenyl)-2,2,2-trifluoroethyl)-2-(2,6-dioxopiperidin-3-yl)-1-oxoisoindoline-5-carboxamide] | < 0.1 | * (a Y value (shown as *) of 0<Y≤20%)
12 | O=C1CCC(N2Cc3cc(C(=O)N[C@H](c4ccccc4OC4CC4)C(F)(F)F)ccc3C2=O)C(=O)N1 (stereo partly drawn) [Example 161, N-((R)-1-(2-cyclopropoxyphenyl)-2,2,2-trifluoroethyl)-2-(2,6-dioxopiperidin-3-yl)-1-oxoisoindoline-5-carboxamide] | < 0.1 | * (a Y value (shown as *) of 0<Y≤20%)
13 | O=C1CCC(N2Cc3cc(C(=O)N[C@@H](CC(F)(F)F)c4cccc(F)c4)ccc3C2=O)C(=O)N1 (stereo partly drawn) [Example 162, 2-(2,6-dioxopiperidin-3-yl)-1-oxo-N-((S)-3,3,3-trifluoro-1-(3-fluorophenyl)propyl)isoindoline-5-carboxamide] | 0.1 to 0.5 | ** (a Y value (shown as**) of 20%<Y≤35%)
14 | O=C1CCC(N2Cc3cc(C(=O)N[C@H](c4ccc(Cl)cc4Cl)C(F)(F)F)ccc3C2=O)C(=O)N1 (stereo partly drawn) [Example 163, N-((R)-1-(2,4-dichlorophenyl)-2,2,2-trifluoroethyl)-2-(2,6-dioxopiperidin-3-yl)-1-oxoisoindoline-5-carboxamide] | < 0.1 | * (a Y value (shown as *) of 0<Y≤20%)
15 | O=C1CCC(N2Cc3c(ccc(C(=O)N[C@H](c4ccc(Cl)cc4Cl)C(F)(F)F)c3F)C2=O)C(=O)N1 (stereo partly drawn) [Example 164, N-((R)-1-(2,4-dichlorophenyl)-2,2,2-trifluoroethyl)-2-(2,6-dioxopiperidin-3-yl)-4-fluoro-1-oxoisoindoline-5-carboxamide] | 0.1 to 0.5 | ** (a Y value (shown as**) of 20%<Y≤35%)
16 | CC(C)(O)C12CC([C@@H](NC(=O)c3ccc4c(c3)CN(C3CCC(=O)NC3=O)C4=O)C(F)(F)F)(C1)C2 (stereo partly drawn) [Example 165, 2-(2,6-dioxopiperidin-3-yl)-1-oxo-N-((R)-2,2,2-trifluoro-1-(3-(2-hydroxypropan-2-yl)bicyclo[1.1.1]pentan-1-yl)ethyl)isoindoline-5-carboxamide] | < 0.1 | * (a Y value (shown as *) of 0<Y≤20%)
17 | O=C1CCC(N2Cc3cc(C(=O)N[C@H](C4CCC5(CC4)CC5)C(F)(F)F)ccc3C2=O)C(=O)N1 (stereo partly drawn) [Example 166, 2-(2,6-dioxopiperidin-3-yl)-1-oxo-N-((1R)-2,2,2-trifluoro-1-(spiro[2.5]octan-6-yl)ethyl)isoindoline-5-carboxamide] | < 0.1 | * (a Y value (shown as *) of 0<Y≤20%)
18 | CC(C)[C@H](NC(=O)c1ccc2c(c1)CN(C1CCC(=O)NC1=O)C2=O)c1ccccc1F (stereo partly drawn) [Example 167, 2-(2,6-dioxopiperidin-3-yl)-N-((S)-1-(2-fluorophenyl)-2-methylpropyl)-1-oxoisoindoline-5-carboxamide] | < 0.1 | * (a Y value (shown as *) of 0<Y≤20%)
19 | C[C@]1(O)CC[C@@H]([C@@H](NC(=O)c2ccc3c(c2)CN(C2CCC(=O)NC2=O)C3=O)C(F)(F)F)CC1 (stereo partly drawn) [Example 168, 2-(2,6-dioxopiperidin-3-yl)-1-oxo-N-((R)-2,2,2-trifluoro-1-((1s,4S)-4-hydroxy-4-methylcyclohexyl)ethyl)isoindoline-5-carboxamide] | < 0.1 | * (a Y value (shown as *) of 0<Y≤20%)
20 | CC(C)[C@H](NC(=O)c1ccc2c(c1)CN(C1CCC(=O)NC1=O)C2=O)c1ccccc1Cl (stereo partly drawn) [Example 169, N-((S)-1-(2-chlorophenyl)-2-methylpropyl)-2-(2,6-dioxopiperidin-3-yl)-1-oxoisoindoline-5-carboxamide] | < 0.1 | * (a Y value (shown as *) of 0<Y≤20%)
21 | CC(C)[C@H](NC(=O)c1ccc2c(c1)CN(C1CCC(=O)NC1=O)C2=O)c1ccc(F)cc1 (stereo partly drawn) [Example 170, 2-(2,6-dioxopiperidin-3-yl)-N-((S)-1-(4-fluorophenyl)-2-methylpropyl)-1-oxoisoindoline-5-carboxamide] | < 0.1 | * (a Y value (shown as *) of 0<Y≤20%)
22 | CC(C)[C@@H](NC(=O)c1ccc2c(c1)CN(C1CCC(=O)NC1=O)C2=O)c1ncccc1Cl (stereo partly drawn) [Example 171, N-((R)-1-(3-chloropyridin-2-yl)-2-methylpropyl)-2-(2,6-dioxopiperidin-3-yl)-1-oxoisoindoline-5-carboxamide] | 0.1 to 0.5 | ** (a Y value (shown as**) of 20%<Y≤35%)
23 | CC(C)[C@H](NC(=O)c1ccc2c(c1)CN(C1CCC(=O)NC1=O)C2=O)c1ncccc1Cl (stereo partly drawn) [Example 172, N-((S)-1-(3-chloropyridin-2-yl)-2-methylpropyl)-2-(2,6-dioxopiperidin-3-yl)-1-oxoisoindoline-5-carboxamide] | < 0.1 | * (a Y value (shown as *) of 0<Y≤20%)
24 | O=C1CC[C@H](N2Cc3cc(C(=O)N[C@H](c4ncccc4Cl)C(F)(F)F)ccc3C2=O)C(=O)N1 [Example 173, N-((R)-1-(3-chloropyridin-2-yl)-2,2,2-trifluoroethyl)-2-((S)-2,6-dioxopiperidin-3-yl)-1-oxoisoindoline-5-carboxamide] | < 0.1 | * (a Y value (shown as *) of 0<Y≤20%)
25 | CC(F)(F)C(NC(=O)c1ccc2c(c1)CN(C1CCC(=O)NC1=O)C2=O)c1ccc(F)cc1 (stereo not shown) [Example 174, N-(2,2-difluoro-1-(4-fluorophenyl)propyl)-2-(2,6-dioxopiperidin-3-yl)-1-oxoisoindoline-5-carboxamide] | < 0.1 | * (a Y value (shown as *) of 0<Y≤20%)
26 | O=C1CCC(N2Cc3cc(C(=O)N[C@H](c4ncc(F)cc4Cl)C(F)(F)F)ccc3C2=O)C(=O)N1 (stereo partly drawn) [Example 175, N-((R)-1-(3-chloro-5-fluoropyridin-2-yl)-2,2,2-trifluoroethyl)-2-(2,6-dioxopiperidin-3-yl)-1-oxoisoindoline-5-carboxamide] | < 0.1 | * (a Y value (shown as *) of 0<Y≤20%)
